Data as given in patent US8834938B2, “Use of arsenic for cancer therapy protection” (Board of Regents of the University of Texas System, priority 2011, dated 2014).
Read-outs that look alike come from different tables or passages of the source.

Columns and labels:
[1] = system: small intestine and bone marrow cells; conditions: mouse, in vivo
[2] = system: small intestine and bone marrow cells; conditions: mouse, in vivo; remark: listed apart in the source
[3] = design: species or system mice; conditions: mouse, in vivo
[4] = system: Human colon carcinoma cells, SW-480; type: in vivo, mice; conditions: mouse, in vivo
[5] = system: p53; experiment: p53 response to irradiation in peripheral blood lymphocytes after arsenic removal; type: in vivo, Mice
Experimental: We next used mice to examine arsenic-mediated modulation of p53 activity in vivo. To this end, we used peripheral blood lymphocytes to monitor the p53 response to irradiation. Mice were fed with water containing arsenic for 3 days. Whole blood was collected from the animals 1, 3, 5, 7, 9, or 11 days after arsenic removal. Lymphocytes were isolated by using the Ficoll method. The cells were cultured for 24 h, then irradiated at a dose of 2 Gy and harvested 3 hours post-treatment. Western analysis was performed. Consistent with the results from cell-based studies, p53 activation by radiation recovered, albeit with a slightly slower kinetics, after arsenic was removed. Radiation-induced p53 accumulation and p21 expression were suppressed at 0 and 1 day […], partially recovered at day 7 and completely back to the untreated level at day 9.

[6] = system: p53; type: cell-based
[7] = system: Lung; conditions: mouse, in vivo
[8] = system: p53; type: cell-based, human
[9] = mouse, in vivo
[10] = mouse, in vivo; remark: listed apart in the source
[11] = mouse, in vivo; remark: listed apart in the source
[12] = system: p53; experiment: C57BL/6 WT vs p53 R172P knock-in mice, protection by arsenic; type: in vivo; conditions: in contrast with wild type littermates
[13] = system: Human lung carcinoma cells A549; type: in vivo, mice; conditions: mouse, in vivo
[14] = mouse, in vivo; remark: listed apart in the source
[15] = design: species or system mice; conditions: mouse, in vivo; remark: listed apart in the source
[16] = system: Human breast carcinoma cells, MDA-MB-231; type: in vivo, mice; conditions: mouse, in vivo
[17] = system: Heart; conditions: mouse, in vivo
[18] = system: human adult foreskin keratinocytes; conditions: cited from earlier work
[19] = after arsenic removal, 3 days arsenic water

Substance: sodium arsenite
- 5FU damage to the small intestine with arsenic pretreatment [1]: significantly ameliorated
- 5FU-induced decrease of bone marrow cellularity with arsenic pretreatment [1]: considerably alleviated
- Damage to small intestine and bone marrow cells with arsenic pretreatment [2]: significantly inhibited
- p53-dependent tissue damages induced by 5FU treatment [3]: significantly blunted
- Effect of arsenic pretreatment on 5FU-induced tumor suppression [4]: little effect
- Effect on growth of the implanted tumors [4]: did not have any detectable effect
- Radiation-induced p53 accumulation and p21 expression ([5]; 0 and 1 day, lymphocytes irradiated 2 Gy ex vivo): suppressed
- Day of complete return to untreated level of p53 accumulation and p21 expression [5, 19]: 9 days
- Day of partial recovery of radiation-induced p53 accumulation and p21 expression [5, 19]: 7 days
- Effect on Hdm2 and p53 distribution [6]: upregulation of Hdm2 and accumulation of p53 in the cytoplasm
- p53 response to genotoxic stress [6]: impaired p53 activation and apoptosis
- Grade of Damage, Lung [7]: Zero
- Time after arsenic removal until p53 activation almost completely recovered [8]: 7 days
- Time in arsenic-free media until radiation-induced p53 activation detectable [8]: 5 days
- Dose showing very clear toxicity by itself [9]: > 3500 μg/kg body weight
- 5FU-induced body weight loss with arsenic pretreatment [10]: almost completely prevented
- 5FU-induced body weight loss with arsenic pretreatment [11]: almost completely prevented
- Body weight change [11]: little loss of body weight
- Protection against toxicity in p53 mutant mice [12]: little protection
- Effect of arsenic pretreatment on 5FU-induced tumor suppression [13]: little effect
- Effect of arsenic pretreatment on irradiation-induced tumor suppression [13]: little effect
- Effect on growth of the implant tumors [13]: did not have any detectable effect
- Body weight change [14]: little loss of body weight
- Therapy-induced body weight loss with arsenic pretreatment [14]: effectively prevented
- Duration of pretreatment adequate for optimal protection [15]: 3 days
- Protection with 1 and 2 days pretreatment [15]: less than 3-day pretreatment
- Protection with pretreatments longer than 3-day [15]: no further increase of benefits
- Effect of arsenic pretreatment on 5FU-induced tumor suppression [16]: little effect
- Grade of Damage, Heart [17]: Zero
- Concentration resulting in induced proliferation with enhanced NF-κB and AP-1 activity [18]: ≤ 5 µM
- Concentration with statistically significant decrease of cell viability [18]: ≥ 10 µM
